# Source: patent US8642559B2, “C-terminal domain truncation of mGluR1α by calpain and uses thereof” (priority 2006, dated 2014)
# Where a SMILES comes first, the peptide text is derived from it. The star is where a group is joined. Cbz = O=C(OCc1ccccc1)*
# How the values were obtained:
# [1] = tested on: mGluR1α; assay: In vivo truncation of mGluR1α in hippocampus after kainic acid injection; details: kainic acid 30 mg/kg s.c., mice
# Procedure: (§1) The tat-peptide was injected i.p. 90 min before kainic acid injection. Note that the peptide had no effect on seizure intensity (bottom left).
# The objective of this set of experiments was to verify that the feedback mechanism of the present invention could take place in vivo and participate in excitotoxicity. We used the kainic acid model of excitotoxicity, as this model has been widely used to study the mechanisms underlying in vivo excitotoxicity (Wang et al. Mol Neurobiol 31:3-16, 2005). Mice were injected with kainic acid and sacrificed at different times after injection. Levels of mGluR1α were determined in hippocampus with both Western blots and immunohistochemistry (FIG. 10).
# [2] = tested on: hippocampal neurons; assay: Kainic acid-induced neuronal damage (silver staining) and seizures in mice; type: in vivo; details: kainic acid 30 mg/kg s.c., mice, 7 days, silver staining
# Procedure: as §1
# They were sacrificed after 7 days and brains processed for silver staining, a marker of cell damage. Note the heavy labeling of the pyramidal cell layer in the KA alone group.
# The effect of the tat-mGluR1 peptide on kainic acid-induced neuronal damage was also evaluated.
# [3] = tested on: mGluR1α; assay: Glutamate/NMDA-induced C-terminal truncation of mGluR1α in cultured cortical neurons (immunoblot); type: cell-based; details: for block of glutamate-induced truncation of mGluR1α: glutamate 100 μM, antagonist 100 μM
# From the text: Total cell lysates were separated by SDS-PAGE and probed with an antibody against the carboxyl terminus (residue 1142-1160) of mGluR1α. […] Total cell lysates were probed with an anti-myc antibody. […] Total cell lysates were probed with antibodies against mGluR5, G1uR2/3 and VGluT1 respectively.
# Total cell lysate was collected immediately after treatment and subjected to SDS-PAGE and immunoblotting with an antibody against the carboxyl terminus (residues 1142-1160) of mGluR1α (FIG. 2A). […] Neurons were transfected with a calcium phosphate precipitation method modified for high transfection rate (Jian et al., Gene Ther 11:1301-1311, 2004).
# Cortical neurons were treated with NMDA at the indicated concentrations for 1 h or treated with NMDA (10 μM) for the indicated times. Total cell lysates were separated by SDS-PAGE and probed with antibodies against mGluR1α1142-1160, Results were normalized over control values and are means±s.e.m. of 4 experiments.
# To determine whether activation of mGluR1α itself was required for the truncation, two distinct mGluR1α antagonists were applied.
# To further characterize NMDA-induced mGluR1α truncation, the concentration- and time-dependencies of the effects of NMDA were studied. Cortical neurons were first incubated with different concentrations of NMDA for a fixed period of time (1 hour) (FIG. 3F). […] In a following experiment, cortical neurons were incubated with 10 μM NMDA for different durations ranging from 1 to 60 min (FIG. 3G).
# Cortical neurons were treated with NMDA (10 μM, 1 h). Total cell lysates were separated by SDS-PAGE and probed with antibodies against spectrin and mGluR1α1142-1160, respectively. Only the degradation bands of spectrin (spectrin DB, at ˜145 KD) are shown. […] In FIG. 4C, purified myc-mGluR1α was digested with μ-calpain at the indicated concentrations (U/ml) for 30 min. The digested material was processed for SDS-PAGE and subjected to silver staining or immunoblots with anti-myc or anti-mGluR1α1142-1160 antibodies. […] The 1st lane was the myc-mGluR1α immunoprecipitated from 293 cells; the 2nd and 3rd lanes were immunoprecipitated myc-mGluR1α digested with indicated concentration of calpain. […] FIG. 4F is the alignment of mGluR1 (902-941) and mGluR5 (889-927) surrounding the calpain cleavage site.
# In this set of experiments, we determined which protease(s) mediated NMDA-induced truncation of mGluR1α. […] Cortical neurons were pretreated with a calpain inhibitor, the cell-permeable calpain-inhibitor III, or the caspase inhibitor cpm-VAD-CHO for 2 hours and then incubated in the absence or presence of 100 µM NMDA for 1 hour. […] To further confirm calpain activation by NMDA under our experimental conditions, we determined the levels of the calpain-specific spectrin degradation fragments.
# [4] = tested on: spectrin; assay: NMDA-induced calpain-specific spectrin degradation (145 kD fragment) in cortical neurons; type: cell-based; details: NMDA 10 μM, 1 h
# Procedure: In this set of experiments, we determined which protease(s) mediated NMDA-induced truncation of mGluR1α. […] Cortical neurons were pretreated with a calpain inhibitor, the cell-permeable calpain-inhibitor III, or the caspase inhibitor cpm-VAD-CHO for 2 hours and then incubated in the absence or presence of 100 M NMDA for 1 hour. […] To further confirm calpain activation by NMDA under our experimental conditions, we determined the levels of the calpain-specific spectrin degradation fragments.
# [5] = tested on: Phospho Akt (Ser473); assay: Akt phosphorylation (Ser473) in cortical neurons (Western blot); type: cell-based; details: DHPG 50 μM, 10 min in presence of LY367385
# Procedure: Representative current traces recorded from HEK293 cells transfected with either myc-mGluR1α (left panel) or myc-mGluR1α936Δ (right panel) and GIRK1, GIRK2 (top) or TRPC1 (bottom). DHPG (100 μM in extracellular solution) was applied using a fast perfusion system for the duration indicated by the scale bars. Each trace is the average of 5 continuous sweeps. The bar graphs represent the means±S.E.M. of DHPG-induced current amplitude recorded in cells transfected with myc-mGluR1α or myc-mGluR1α936Δplus GIRK1, GIRK2 (top right) or TRPC1 (bottom right) (n=3-7). In FIG. 6B, cortical neurons were pre-treated with NMDA (50 1μM, 1 h). Two hours after washing NMDA, neurons were treated with the mGluR1 agonist DHPG (50 μM) for 10 min in the absence or presence of LY367385. Total cell lysates were collected and probed with anti-Phospho Akt (Ser473) antibody. Without pretreatment with NMDA, DHPG increased the levels of Phospho-Akt (* p<0.05), an effect blocked by LY367385.
# As reported in previous studies, mGluR1 activation can stimulate the PI3K-Akt signaling pathway through the mGluRI-Homer-PIEL-PI3K signaling complex. Since the Homer-binding domain of mGluR1α is located in the extreme C-terminus, which is removed after calpain-mediated truncation, it was interesting to determine whether this signaling mechanism remained functional. We first induced mGluR1α truncation by treating cortical neurons with 50 μM NMDA for 1 hour. Two hours after washing out NMDA, neurons were incubated with the mGluRI agonist DHPG (50 μM) for 10 min. Neurons were then lysed and levels of phosphorylated Akt were determined on Western blots. Consistent with a previous study, in cortical neurons that were not pre-treated with NMDA, DHPG induced an increase in phosphorylated Akt levels (p<0.05, n=4, Student's t-test for Control vs. DHPG), an effect which was blocked by the mGluR1 selective antagonist LY367385 (p<0.05, n=4, for DHPG+LY367385 vs. DHPG) (FIG. 6B). […] Thus, mGluR1α-PI3K-Akt signaling pathway was disrupted by calpain-mediated mGluR1α truncation.
# [6] = tested on: cortical neurons; assay: NMDA/DHPG neuronal toxicity in cortical neurons (EthD-1/Calcein AM live/dead); type: cell-based; details: 100 μM LY367385 co-applied with 100 μM DHPG
# From the text: In FIGS. 8a and b, cortical neurons were co-transfected with green fluorescent protein (GFP) and vector DNA, myc-mGluR1α or myc-mGluR1α936Δ, respectively. […] Twelve hours later, neurons were stained with EthD-1 to label dead cells. Arrowheads in FIG. 8a indicate EthD-1 positive GFP-expressing neurons. * p<0.05. FIGS. 8c and d are representative photos and bar graphs showing differential roles of endogenous mGluR1 in neuronal toxicity before and after NMDA-induced truncation. Cortical neurons were treated as indicated and were stained with EthD-1 (for dead cells) and calcein AM (for live cells) 24 hours later. * p<0.001.
# We then tested whether calpain-mediated truncation of endogenous mGluR1α also alters its roles in excitotoxicity. We used NMDA to elicit mGluR1α truncation and evaluated the roles of mGluR1 in neuronal toxicity by applying DHPG before and after truncation. Fourteen DIV cortical neurons cultured on 18×18 mm coverslips were divided into 6 groups, which received the following treatments, respectively: 1) “Control”: vehicle; 2) “NMDA”: 100 μM NMDA for 1 hour; 3) “DHPG before NMDA”: DHPG, 100 μM, for 1 hour, followed by 100 μM NMDA for 1 hour; 4) “DHPG after NMDA”: NMDA, 100 μM, for 1 hour, followed by 100 μM DHPG for 1 hour; 5) “DHPG+LY before NMDA”: 100 μM DHPG was co-applied with 100 μM LY367385 for 1 hour and followed by 100 μM NMDA for 1 hour; 6) “DHPG+LY after NMDA”: NMDA 100 μM for 1 hour, followed by 100 μM DHPG co-applied with 100 μM LY367385. Twenty-four hours after treatment, all neurons were stained for 20 minutes with 0.5 μM EthD-1 to label dead cells and 2 μM Calcein AM to label live cells. After three washes with culture medium, coverslips were mounted and one microscopy photo was immediately taken from the center area of each coverslip. EthD-1 and Calcein AM positive cells on each photo were then counted. The percentage of cell death was calculated as the number of EthD-1 positive cell/(number of EthD-1 positive cell+number of Calcein AM positive cell)*100%.
smiles,measurement,setting,value
C=C(C)[C@H]1CN[C@H](C(=O)O)[C@H]1CC(=O)O [kainic acid],mGluR1 truncation in hippocampus following kainic acid injection,[1],rapidly truncated
same,neuronal damage in hippocampal pyramidal neurons,[2],marked damage
N#Cc1cc2[nH]c(=O)c(=O)[nH]c2cc1[N+](=O)[O-] [CNQX],block of glutamate-induced truncation of mGluR1α,[3]; 1 h,had no effect
N[C@@H](CCCP(=O)(O)O)C(=O)O [APV],block of glutamate-induced truncation of mGluR1α,[3]; 1 h,completely blocked
C[C@H](NC(c1cccc2[nH]c(=O)c(=O)[nH]c12)P(=O)(O)O)c1ccc(Br)cc1 (stereo partly shown) [NVP-AAM077],block of NMDA-induced truncation of mGluR1α,"[3]; NMDA 10 μM, 1 h, NVP-AAM077 0.4 μM",not
same,block of NMDA-mediated spectrin degradation,[4]; NVP-AAM077 0.4 μM,not
Cc1cc(C(=O)O)ccc1[C@H](N)C(=O)O [LY367385],block of glutamate-induced truncation of mGluR1α,[3]; 1 h,do not block
same,block of DHPG-induced increase in phosphorylated Akt,[5],blocked
same,block of the neuroprotective effect of DHPG before NMDA,[6],completely blocked
same,block of the neurotoxic effect of DHPG after NMDA,[6],completely blocked
CC(C)[C@H](NC(=O)OCc1ccccc1)C(=O)N[C@H](C=O)Cc1ccccc1 [calpain inhibitor III] (Cbz-Val-Phe-aldehyde),block of NMDA-induced truncation of mGluR1α,"[3]; inhibitor pretreatment 2 hours, then NMDA 100 μM 1 h, Calpi3 10 μM",significantly blocked
CC(C(O)c1ccc(O)cc1)N1CCC(Cc2ccccc2)CC1 (stereo not shown) [ifenprodil],block of NMDA-induced truncation of mGluR1α,"[3]; NMDA 10 μM, 1 h, ifenprodil 10 μM",selectively blocked
same,block of NMDA-mediated spectrin degradation,[4]; ifenprodil 10 μM,blocked
